Test results reported in patent publication US9963462B2 (priority 2015, dated 2018).

Key:
[1] = system: BH4 levels in SK-N-BE (2) cells; assay: SKN-N-BE (2) cellular assay, BH4 levels by LC-MS; type: cell-based; settings: Homo sapiens, SKNBE2, read-out: SK-N-BE(2) IC50, SK-N-BE (2) cells, BH4 levels by LC-MS
[2] = target: SNAP-hSPR (sepiapterin reductase, SPR) (Homo sapiens, UniProt P35270); assay: biochemical; type: binding; settings: terbium labelled SNAP-hSPR / SSZ labelled SNAP-EGFP; read-out: hTR-FRET IC50
Chain of SNAP-hSPR (sepiapterin reductase, SPR) (P35270 whole entry): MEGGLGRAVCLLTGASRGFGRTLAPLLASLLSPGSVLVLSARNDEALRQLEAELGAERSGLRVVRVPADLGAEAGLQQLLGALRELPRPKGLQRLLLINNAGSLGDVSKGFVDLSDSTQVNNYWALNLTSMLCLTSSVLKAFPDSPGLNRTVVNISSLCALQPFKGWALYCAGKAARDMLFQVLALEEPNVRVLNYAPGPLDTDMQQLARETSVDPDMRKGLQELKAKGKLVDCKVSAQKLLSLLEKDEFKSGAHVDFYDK

SMILES	IC50 [1] [nM]	IC50 [2] [nM]
Cc1c(C(=O)N2CCN(C(=O)OC(C)(C)C)CC2(C)C)cnn1-c1nn2cccc2c(=O)[nH]1 [Q-0916]	700	
CCN(C)C1CCN(C(=O)c2cnn(-c3nn4cccc4c(=O)[nH]3)c2C)CC1 [Q-0925]	500	
Cc1c(C(=O)N2C3CCC2CC(F)(c2ccc(Cl)cc2)C3)cnn1-c1nn2cccc2c(=O)[nH]1 (centres unmarked) [Q-1037]	71	
Cc1c(C(=O)N2CCC3(CCN(CCC(F)(F)F)C3)CC2)cnn1-c1nn2cccc2c(=O)[nH]1 [Q-1018]	700	
Cc1c(C(=O)N2CC3CCN(C(=O)OC(C)(C)C)C3C2)cnn1-c1nn2cccc2c(=O)[nH]1 (centres unmarked) [Q-0878]	800	
Cc1c(C(=O)N2CCN(CC(F)(F)F)C(=O)C2)cnn1-c1nn2cccc2c(=O)[nH]1 [Q-0980]	1300	
Cc1c(C(=O)N2CC3CCCC(C2)N3CC(F)(F)F)cnn1-c1nn2cccc2c(=O)[nH]1 [Q-1035]	100	
Cc1c(C(=O)N2CCC(N3CCC[C@@H]3C(F)(F)F)CC2)cnn1-c1nn2cccc2c(=O)[nH]1 [Q-1019]	400	
Cc1c(C(=O)N2CC(N3CC[C@@H](F)C3)C2)cnn1-c1nn2cccc2c(=O)[nH]1 [Q-1009]	2000	
Cc1c(C(=O)N2CC(N3CCC[C@H](F)C3)C2)cnn1-c1nn2cccc2c(=O)[nH]1 [Q-1025]	1200	
Cc1c(C(=O)N2CCC(N3CCCC3)CC2)cnn1-c1nn2cccc2c(=O)[nH]1 [Q-0886]	5400	
Cc1c(C(=O)N2CCC[C@@H](OCC(F)(F)F)C2)cnn1-c1nn2cccc2c(=O)[nH]1 [Q-1014]	1400	
Cc1cc(=O)[nH]c(-n2ncc(C(=O)N3CCc4ccc(C#N)cc4C3)c2C)n1 [Q-0286]		10
Cc1c(C(=O)N2CCN(S(=O)(=O)c3ccc(F)c(Cl)c3)CC2)cnn1-c1nn2cccc2c(=O)[nH]1 [Q-1801]		2
Cc1c(C(=O)N2CCN(CC(F)(F)F)CC2)cnn1-c1nc2c(ccn2C)c(=O)[nH]1 [Q-1266]		200
COc1ccc(OC)c(S(=O)(=O)N2CCN(C(=O)c3cnn(-c4nn5cccc5c(=O)[nH]4)c3C)CC2)c1 [Q-1839]		2
Cc1cc(=O)[nH]c(-c2cnn(CCC(=O)N3CCc4ccccc4C3)c2)n1 (single isomer, unassigned) [Q-0291, 6-methyl-2-{1-[3-oxo-3-(1,2,3,4-tetrahydroisoquinolin-2-yl)propyl]-1H-pyrazol-4-yl}-3,4-dihydropyrimidin-4-one]		2700
Cc1c(C(=O)N2CCC(S(=O)(=O)N3CCCC3)CC2)cnn1-c1nn2cccc2c(=O)[nH]1 [Q-2007]		1
CCC1Cc2ccccc2N1C(=O)c1cnn(-c2nc(C)cc(=O)[nH]2)c1C (centres unmarked) [Q-0420]		7
Cc1c(C(=O)N2CCC(C(F)(F)F)CC2)cnn1-c1nc2ccnn2c(=O)[nH]1 [Q-0447]		400
Cc1cc(=O)[nH]c(-c2cnn(CCC(=O)N3CCCC3)c2)n1 [Q-0283, 6-methyl-2-{1-[3-oxo-3-(pyrrolidin-1-yl)propyl]-1H-pyrazol-4-yl}-3,4-dihydropyrimidin-4-one]		1500
Cc1c(C(=O)N2CC(N3CCC(F)(F)C3)C2)cnn1-c1nc2c(ccn2C)c(=O)[nH]1 [Q-1322]		400
Cc1nc(-n2ncc(C(=O)N3c4ccccc4C[C@@H]3C)c2C)[nH]c(=O)c1C (single isomer, unassigned) [Q-0457]		100
Cc1c(C(=O)N2CCN(S(=O)(=O)c3cc(Cl)ccc3Cl)CC2)cnn1-c1nn2cccc2c(=O)[nH]1 [Q-1825]		2
Cc1c(C(=O)N2CC3(C2)CC(F)(F)C3)cnn1-c1nc2[nH]ncc2c(=O)[nH]1 [Q-1295]		2400
Cc1c(C(=O)N2CCN(S(=O)(=O)c3ccc(C(C)(C)C)cc3)CC2)cnn1-c1nn2cccc2c(=O)[nH]1 [Q-1800]		2
Cc1c(C(=O)N2CCN(S(=O)(=O)c3ccc4ccccc4c3)CC2)cnn1-c1nn2cccc2c(=O)[nH]1 [Q-1831]		3
Cc1c(C(=O)N2CCOCC2)cnn1-c1nc2ccccc2c(=O)[nH]1 [Q-0320]		1300
Cc1c(C(=O)N2CCN(S(=O)(=O)c3cccc(C(F)(F)F)c3)CC2)cnn1-c1nn2cccc2c(=O)[nH]1 [Q-1826]		2
